{"source": "paper PMC11677527", "about": "“Predicting Pharmacokinetics of Active Constituents in Spatholobi caulis by Using Physiologically Based Pharmacokinetic Models” (Pharmaceuticals, 2024)", "key": {"[1]": {"set-up": "method as in PMID 34303214", "details": "rats, p.o. SPC 30 g crude drug/kg; doses of 1-4: 0.062, 0.11, 0.71, 1.31 mg/kg; cited from earlier work"}, "[2]": {"assay": "Observed pharmacokinetics in rats after oral SPC (previous study)", "assay_type": "in vivo, rat", "details": "p.o. SPC"}, "[3]": {"assay": "Verification pharmacokinetic experiment in rats, SPC 60 g crude drug/kg by gavage, UFLC-MS/MS, DAS 2.0", "assay_type": "in vivo, rat", "description": "To validate the accuracy of PBPK models in predicting the pharmacokinetics of SPC constituents at different oral doses, the pharmacokinetic behavior of these four constituents from SPC in rats were analyzed by UFLC-MS/MS. The parameters were calculated using Drug and Statistics Software version 2.0, and then these validated values (Val.) were used to check the accuracy of the Calc. values and evaluated by FE.\nThe pharmacokinetic fitting results of rats given 60 g crude drug/kg body weight of SPC by gavage were verified by experiments. The verification experiment was conducted according to our previous pharmacokinetic study. In brief, 1.5 mL suspension of SPC was given to rats by oral administration; 300 μL blood samples from orbital venous at 0.083, 0.25, 0.5, 0.75, 1.0, 1.5, 2, 3, 4, 6, 8, and 12 h were collected and pretreated with heparin sodium. After centrifugation, the plasma samples were obtained and further processed for subsequent detection by UFLC-MS/MS; the detailed analysis method is shown in Supplementary Data (Table S1 and Figure S1). The concentration-time curve of each compound was gained, and the pharmacokinetic parameters were calculated using DAS 2.0 software (DAS 2.0, Mathematical Pharmacology Professional Committee of China, Shanghai, China). The results of these four constituents were compared with the PBPK parameters predicted in rats at an oral dose of 60 g crude drug/kg body weight of SPC.\n1. The instrument and analytical conditions of UFLC-MS/MS method\n4 constituents (1. 3′-methoxydadizein; 2. 8-O-methylretusin; 3. Daidzin; and 4. […]\nThe internal standard (IS) carbamazepine with a purity of more than 99 % was purchased from Beijing JK-chemical technology Co. Ltd., (Beijing China). Heparin sodium was gained from Tianjin biochemical pharmaceutical Co. Ltd, (Tianjin, China).\nAmmonium acetate of HPLC grade, methanol and acetonitrile of LC-MS grade were purchased from Sigma (LOT# BCBK6717V, sigma-aldrich, Co., MO, USA) and Fisher (Fisher Corp., Fair lawn, NJ, USA) respectively. The experimental ultrapure water was prepared by Millipore Milli-Q ultrapure water preparation apparatus (Millipore Sigma, […]\nThe detailed information of Shimadzu UFLC-MS/MS 8050 liquid mass system equipped with Nexera X2UFLC liquid chromatography system and 8050 triple quadrupole mass spectrometers with an electrospray ionization source were listed in our previous study. The supporting LabSolution workstation was used for data […]\nThe separation without superposition of analytes in plasma sample was achieved on a Kinetex® C18 chromatographic column (100mm×2.1mm i.d.; 2.6 μm, 100 Å; Phenomenex, Inc., Torrance, CA, USA) assembled with a Phenomenex p/n AJ0-9000 C18 protection column. The mobile phase was consisted of 0.5 mM ammonium acetate in water (A) and ACN (B). The gradient elution program was selected ultimately as […]\n95 % B (18.7–22 min). Column and automatic sampler temperature were set as 30 °C and 4 °C respectively. The flow rate of mobile phase was 0.35 mL/min while sample injection volume was 4 μL.\nMultiple reaction monitoring (MRM) of positive or negative modes were used as scanning modes for the analytes and IS. Other essential parameters were successively optimized as: Nebulizing gas flow, 3 L/min; Heating gas flow, 10 L/min; Drying gas flow, 10 L/min; Interface temperature, 300 °C; DL temperature, 250 °C; Interface and detector voltage were each set as 3.0 kV and 1.8 kV. The detection parameters such as retention time (RT), dwell time (DT), quadrupole 1 pre-rod bias (Q1), collision energy […]\nTable S1 The retention time and ion equivalent parameters of 4 constituents in rat […]\nConstituents Retention Precursor Precursor Product time Pre energy Pre time (min) ion species ion ion (msec) Bias (V) Bias"}, "Caco-2 cell monolayer": {"tested_on": "Caco-2 cell monolayer", "set-up": "method as in PMID 36680806, PMID 26501241", "details": "Caco-2 cell monolayer model; cited from earlier work"}, "[4]": {"details": "compartment model parameters, DAS 2.0, rats p.o. SPC 60 g crude drug/kg, Mean, 5 rats"}, "[5]": {"details": "statistical moment parameters, DAS 2.0, rats p.o. SPC 60 g crude drug/kg, Mean, 5 rats"}, "[6]": {"details": "statistical moment parameters, DAS 2.0, rats p.o. SPC 60 g crude drug/kg, Mean, 5 rats, in µg·h²/mL"}}, "note": "Where two headings read alike, the source gives them in different places."}
{"smiles": "O=c1c(-c2ccc(O)cc2)coc2cc(O[C@@H]3O[C@H](CO)[C@@H](O)[C@H](O)[C@H]3O)ccc12", "note": "[Constituent 3, daidzin]", "values": [{"measurement": "AUC0→t Obs.", "setting": "[1]", "value": 0.0284, "unit": "µg·h/mL"}, {"measurement": "AUC0→∞ Obs.", "setting": "[1]", "value": 0.0305, "unit": "µg·h/mL"}, {"measurement": "Cmax Obs.", "setting": "[1]", "value": 0.0151, "unit": "µg/mL"}, {"measurement": "Tmax Obs.", "setting": "[1]", "value": 12.6, "unit": "min"}, {"measurement": "time of slight secondary absorption peak", "setting": "[2]", "value": 6, "unit": "h"}, {"measurement": "K10", "setting": "[3]; [4]", "value": 0.981, "unit": "h⁻¹"}, {"measurement": "K12", "setting": "[3]; [4]", "value": 0.402, "unit": "h⁻¹"}, {"measurement": "K21", "setting": "[3]; [4]", "value": 0.15, "unit": "h⁻¹"}, {"measurement": "Ka", "setting": "[3]; [4]", "value": 16.131, "unit": "h⁻¹"}, {"measurement": "Tlag", "setting": "[3]; [4]", "value": 0, "unit": "h"}, {"measurement": "V1/F", "setting": "[3]; [4]", "value": 37.289, "unit": "L/kg"}, {"measurement": "t1/2Ka", "setting": "[3]; [4]", "value": 23.1, "unit": "min"}, {"measurement": "t1/2α", "setting": "[3]; [4]", "value": 52.1, "unit": "min"}, {"measurement": "concentration at 0.083 h", "setting": "[3]; rat, plasma, oral, time 0.083 h, rats p.o. SPC 60 g crude drug/kg, doses of 1-4: 0.124, 0.22, 1.4, 2.62 mg/kg, 5 rats", "value": 16.4, "unit": "ng/mL"}, {"measurement": "concentration at 0.25 h", "setting": "[3]; rat, plasma, oral, time 0.25 h, rats p.o. SPC 60 g crude drug/kg, doses of 1-4: 0.124, 0.22, 1.4, 2.62 mg/kg, 5 rats", "value": 28, "unit": "ng/mL"}, {"measurement": "concentration at 0.5 h", "setting": "[3]; rat, plasma, oral, time 0.5 h, rats p.o. SPC 60 g crude drug/kg, doses of 1-4: 0.124, 0.22, 1.4, 2.62 mg/kg, 5 rats", "value": 21, "unit": "ng/mL"}, {"measurement": "concentration at 0.75 h", "setting": "[3]; rat, plasma, oral, time 0.75 h, rats p.o. SPC 60 g crude drug/kg, doses of 1-4: 0.124, 0.22, 1.4, 2.62 mg/kg, 5 rats", "value": 18.4, "unit": "ng/mL"}, {"measurement": "concentration at 1 h", "setting": "[3]; rat, plasma, oral, time 1 h, rats p.o. SPC 60 g crude drug/kg, doses of 1-4: 0.124, 0.22, 1.4, 2.62 mg/kg, 5 rats", "value": 10.9, "unit": "ng/mL"}, {"measurement": "concentration at 1.5 h", "setting": "[3]; rat, plasma, oral, time 1.5 h, rats p.o. SPC 60 g crude drug/kg, doses of 1-4: 0.124, 0.22, 1.4, 2.62 mg/kg, 5 rats", "value": 5.55, "unit": "ng/mL"}, {"measurement": "concentration at 2 h", "setting": "[3]; rat, plasma, oral, time 2 h, rats p.o. SPC 60 g crude drug/kg, doses of 1-4: 0.124, 0.22, 1.4, 2.62 mg/kg, 5 rats", "value": 3.16, "unit": "ng/mL"}, {"measurement": "concentration at 3 h", "setting": "[3]; rat, plasma, oral, time 3 h, rats p.o. SPC 60 g crude drug/kg, doses of 1-4: 0.124, 0.22, 1.4, 2.62 mg/kg, 5 rats", "value": 2.62, "unit": "ng/mL"}, {"measurement": "concentration at 4 h", "setting": "[3]; rat, plasma, oral, time 4 h, rats p.o. SPC 60 g crude drug/kg, doses of 1-4: 0.124, 0.22, 1.4, 2.62 mg/kg, 5 rats", "value": 1.56, "unit": "ng/mL"}, {"measurement": "concentration at 6 h", "setting": "[3]; rat, plasma, oral, time 6 h, rats p.o. SPC 60 g crude drug/kg, doses of 1-4: 0.124, 0.22, 1.4, 2.62 mg/kg, 5 rats", "value": 1.39, "unit": "ng/mL"}, {"measurement": "concentration at 8 h", "setting": "[3]; rat, plasma, oral, time 8 h, rats p.o. SPC 60 g crude drug/kg, doses of 1-4: 0.124, 0.22, 1.4, 2.62 mg/kg, 5 rats", "value": 1.18, "unit": "ng/mL"}, {"measurement": "AUC(0-t)", "setting": "[3]; rat, plasma, po, 1.4 mg/kg, compartment model parameters, DAS 2.0, rats p.o. SPC 60 g crude drug/kg, Mean, 5 rats, read-out: AUC(0-t)", "value": 37.1, "unit": "ng·h/mL"}, {"measurement": "AUC(0-inf)", "setting": "[3]; rat, plasma, po, 1.4 mg/kg, compartment model parameters, DAS 2.0, rats p.o. SPC 60 g crude drug/kg, Mean, 5 rats, read-out: AUC(0-∞)", "value": 39.5, "unit": "ng·h/mL"}, {"measurement": "CL/F", "setting": "[3]; rat, plasma, po, 1.4 mg/kg, compartment model parameters, DAS 2.0, rats p.o. SPC 60 g crude drug/kg, Mean, 5 rats, read-out: CL/F (converted)", "value": 594, "unit": "mL/min/kg"}, {"measurement": "half-life", "setting": "[3]; rat, plasma, po, 1.4 mg/kg, compartment model parameters, DAS 2.0, rats p.o. SPC 60 g crude drug/kg, Mean, 5 rats, read-out: t1/2β (converted)", "value": 2190, "unit": "min"}, {"measurement": "AUC(0-t)", "setting": "[3]; rat, plasma, po, 1.4 mg/kg, statistical moment parameters, DAS 2.0, rats p.o. SPC 60 g crude drug/kg, Mean, 5 rats, read-out: AUC(0-t)", "value": 35.5, "unit": "ng·h/mL"}, {"measurement": "AUC(0-inf)", "setting": "[3]; rat, plasma, po, 1.4 mg/kg, statistical moment parameters, DAS 2.0, rats p.o. SPC 60 g crude drug/kg, Mean, 5 rats, read-out: AUC(0-∞)", "value": 35.9, "unit": "ng·h/mL"}, {"measurement": "CL/F", "setting": "[3]; rat, plasma, po, 1.4 mg/kg, statistical moment parameters, DAS 2.0, rats p.o. SPC 60 g crude drug/kg, Mean, 5 rats, read-out: CLz/F (converted)", "value": 652, "unit": "mL/min/kg"}, {"measurement": "MRT last", "setting": "[3]; rat, plasma, po, 1.4 mg/kg, statistical moment parameters, DAS 2.0, rats p.o. SPC 60 g crude drug/kg, Mean, 5 rats, read-out: MRT(0-t)", "value": 1.83, "unit": "h"}, {"measurement": "MRT inf", "setting": "[3]; rat, plasma, po, 1.4 mg/kg, statistical moment parameters, DAS 2.0, rats p.o. SPC 60 g crude drug/kg, Mean, 5 rats, read-out: MRT(0-∞)", "value": 2.09, "unit": "h"}, {"measurement": "Tmax", "setting": "[3]; rat, plasma, po, 1.4 mg/kg, statistical moment parameters, DAS 2.0, rats p.o. SPC 60 g crude drug/kg, Mean, 5 rats, read-out: Tmax", "value": 15, "unit": "min"}, {"measurement": "Vd/F", "setting": "[3]; rat, plasma, po, 1.4 mg/kg, statistical moment parameters, DAS 2.0, rats p.o. SPC 60 g crude drug/kg, Mean, 5 rats, read-out: Vz/F", "value": 103, "unit": "L/kg"}, {"measurement": "half-life", "setting": "[3]; rat, plasma, po, 1.4 mg/kg, statistical moment parameters, DAS 2.0, rats p.o. SPC 60 g crude drug/kg, Mean, 5 rats, read-out: t1/2z (converted)", "value": 109, "unit": "min"}, {"measurement": "AUC(0-t)", "setting": "[3]; rat, plasma, po, 2.62 mg/kg, rats, p.o. SPC 60 g crude drug/kg, doses of 1-4: 0.124, 0.22, 1.42, 2.62 mg/kg, n = 5, read-out: AUC0→t Val.", "value": 35.5, "unit": "ng·h/mL"}, {"measurement": "AUC(0-inf)", "setting": "[3]; rat, plasma, po, 2.62 mg/kg, rats, p.o. SPC 60 g crude drug/kg, doses of 1-4: 0.124, 0.22, 1.42, 2.62 mg/kg, n = 5, read-out: AUC0→∞ Val.", "value": 35.9, "unit": "ng·h/mL"}, {"measurement": "Tmax", "setting": "[3]; rat, plasma, po, rats, p.o. SPC 60 g crude drug/kg, doses of 1-4: 0.124, 0.22, 1.42, 2.62 mg/kg, n = 5, read-out: Tmax Val.", "value": 15, "unit": "min"}, {"measurement": "Cmax", "setting": "[3]; [5]", "value": 27.183, "unit": "µg/L"}, {"measurement": "Cz", "setting": "[3]; [5]", "value": 0.117, "unit": "µg/L"}, {"measurement": "VRT(0-t)", "setting": "[3]; [5]", "value": 4.934, "unit": "h^2"}, {"measurement": "VRT(0-∞)", "setting": "[3]; [5]", "value": 8.138, "unit": "h^2"}, {"measurement": "elimination rate constant", "setting": "[3]; [5]", "value": 0.429, "unit": "h⁻¹"}, {"measurement": "AUMC(0-t)", "setting": "[3]; [6]", "value": 65.207}, {"measurement": "AUMC(0-∞)", "setting": "[3]; [6]", "value": 75.236}, {"measurement": "Papp", "setting": "Caco-2 cell monolayer", "value": "4e-06", "unit": "cm/s"}]}
